Holding throughout (type): cell-based
The subject of assay [1] is HEK293. Description: Selectivity ratio of EC50 for human GLP1R expressed in HEK293 cells to EC50 for human GLP2R expressed in HEK293.
For assay [2], the target named is Glucagon-like peptide 1 receptor (Homo sapiens, UniProt P43220). Description: Agonist activity at human GLP1R expressed in HEK293 cells after 5 hrs by luciferase reporter gene assay. (In general: In a reporter assay the amount or activity of a reporter protein is the signal.)
Chain of Glucagon-like peptide 1 receptor (P43220 whole entry): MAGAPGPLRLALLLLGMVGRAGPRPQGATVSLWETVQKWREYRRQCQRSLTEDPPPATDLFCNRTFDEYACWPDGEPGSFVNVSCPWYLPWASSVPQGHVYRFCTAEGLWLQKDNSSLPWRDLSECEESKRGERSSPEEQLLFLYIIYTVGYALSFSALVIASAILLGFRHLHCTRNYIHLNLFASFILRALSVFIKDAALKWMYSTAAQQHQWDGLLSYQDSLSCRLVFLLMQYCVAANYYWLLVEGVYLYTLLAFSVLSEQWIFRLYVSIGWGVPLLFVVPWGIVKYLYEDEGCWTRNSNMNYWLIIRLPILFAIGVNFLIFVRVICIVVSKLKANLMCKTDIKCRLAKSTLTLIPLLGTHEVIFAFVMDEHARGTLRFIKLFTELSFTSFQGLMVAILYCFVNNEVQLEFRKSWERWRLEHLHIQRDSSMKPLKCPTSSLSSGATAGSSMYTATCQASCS
Assay [3] has as its target T1, Glucagon-like peptide 2 receptor (Homo sapiens) (UniProt O95838).
T1 sequence (whole entry): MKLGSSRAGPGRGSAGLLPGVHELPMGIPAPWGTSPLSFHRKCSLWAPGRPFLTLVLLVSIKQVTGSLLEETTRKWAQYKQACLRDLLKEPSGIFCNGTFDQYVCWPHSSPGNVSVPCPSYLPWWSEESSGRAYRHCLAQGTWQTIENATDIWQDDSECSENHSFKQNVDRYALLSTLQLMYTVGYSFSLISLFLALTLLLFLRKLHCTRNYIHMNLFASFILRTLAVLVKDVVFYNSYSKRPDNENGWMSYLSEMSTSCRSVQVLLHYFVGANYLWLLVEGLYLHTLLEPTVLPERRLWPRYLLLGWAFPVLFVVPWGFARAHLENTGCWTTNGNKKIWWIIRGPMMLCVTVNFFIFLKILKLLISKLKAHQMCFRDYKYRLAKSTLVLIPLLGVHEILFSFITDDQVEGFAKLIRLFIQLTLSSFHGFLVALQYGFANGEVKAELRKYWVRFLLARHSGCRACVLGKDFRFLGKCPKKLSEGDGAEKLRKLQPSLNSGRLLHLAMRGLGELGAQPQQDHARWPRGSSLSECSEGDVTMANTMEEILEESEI
Description: Potency index, ratio of compound EC50 to compound 2 EC50 for human GLP2R expressed in HEK293 cells.

The target of assay [4] is T2, Glucagon-like peptide 2 receptor (Homo sapiens, UniProt O95838).
T2 sequence (O95838 whole entry): T1 sequence (whole entry)
In words: Agonist activity at human GLP2R expressed in HEK293 cells after 5 hrs by luciferase reporter gene assay.

In assay [5] the target is Glucagon receptor (Homo sapiens) (UniProt P47871). Description: Agonist activity at human GCGR expressed in HEK293 cells after 5 hrs by luciferase reporter gene assay.
Chain of Glucagon receptor (Homo sapiens) (P47871 whole entry): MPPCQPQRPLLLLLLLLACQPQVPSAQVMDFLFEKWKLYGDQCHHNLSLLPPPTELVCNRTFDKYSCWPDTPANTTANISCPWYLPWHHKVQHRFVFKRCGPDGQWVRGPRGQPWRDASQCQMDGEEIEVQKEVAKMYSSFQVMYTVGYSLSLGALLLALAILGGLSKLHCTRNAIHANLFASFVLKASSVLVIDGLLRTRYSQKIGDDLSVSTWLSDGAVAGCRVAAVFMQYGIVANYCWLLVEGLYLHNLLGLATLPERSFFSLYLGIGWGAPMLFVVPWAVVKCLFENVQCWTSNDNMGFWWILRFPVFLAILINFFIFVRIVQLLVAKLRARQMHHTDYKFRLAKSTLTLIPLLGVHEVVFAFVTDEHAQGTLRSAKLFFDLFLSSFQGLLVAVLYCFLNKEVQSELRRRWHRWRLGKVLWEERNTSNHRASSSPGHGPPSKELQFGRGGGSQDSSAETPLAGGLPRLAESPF

Results on 8 compounds are retold here after ChEMBL document CHEMBL3822442, “Synthesis and Pharmacological Characterization of Novel Glucagon-like Peptide-2 (GLP-2) Analogues with Low Systemic Clearance” (J Med Chem, 2016).

Activity calls are given as the source filed them. The rule behind the calls is not given here. A value given as a limit tells only on which side of the number the result lay.

Turning to `CCCCC(NC(=O)[C@H](CCC(=O)O)NC(=O)[C@H](CC(=O)O)NC(=O)[C@H](CO)NC(=O)[C@H](Cc1ccccc1)NC(=O)[C@H](CO)NC(=O)CNC(=O)[C@H](CC(=O)O)NC(=O)CNC(=O)[C@@H](N)Cc1cnc[nH]1)C(=O)N[C@@H](CC(N)=O)C(=O)N[C@H](C(=O)N[C@H](C(=O)N[C@@H](CC(C)C)C(=O)N[C@@H](CC(=O)O)C(=O)N[C@@H](CC(N)=O)C(=O)N[C@H](CC(C)C)C(=O)N[C@@H](C)C(=O)N[C@@H](C)C(=O)N[C@@H](CCCNC(=N)N)C(=O)N[C@@H](CC(=O)O)C(=O)N[C@@H](Cc1ccccc1)C(=O)N[C@H](C(=O)N[C@@H](CC(N)=O)C(=O)N[C@@H](Cc1c[nH]c2ccccc12)C(=O)N[C@@H](CC(C)C)C(=O)N[C@H](C(=O)N[C@@H](CCC(N)=O)C(=O)N[C@H](C(=O)N[C@@H](CCCCN)C(N)=O)[C@@H](C)O)[C@@H](C)CC)[C@@H](C)CC)[C@@H](C)CC)[C@@H](C)O` (stereo not given in full), the Ratio EC50 in assay [1] was above 380; in assay [3], 12. Moreover, the EC50 is above 1000 nM in assay [2] and 2.6 nM in assay [4]. For the same compound, the outcome in assay [5] was inactive.
The like results for `CCCCC(NC(=O)[C@H](CCC(=O)O)NC(=O)[C@H](CC(=O)O)NC(=O)[C@H](CO)NC(=O)[C@H](Cc1ccccc1)NC(=O)[C@H](CO)NC(=O)CNC(=O)[C@H](CC(=O)O)NC(=O)CNC(=O)[C@@H](N)Cc1cnc[nH]1)C(=O)N[C@@H](CC(N)=O)C(=O)N[C@H](C(=O)N[C@H](C(=O)N[C@H](CC(C)C)C(=O)N[C@@H](CC(=O)O)C(=O)N[C@@H](CC(N)=O)C(=O)N[C@@H](CC(C)C)C(=O)N[C@@H](C)C(=O)N[C@@H](C)C(=O)N[C@@H](CCCNC(=N)N)C(=O)N[C@@H](CC(=O)O)C(=O)N[C@@H](Cc1ccccc1)C(=O)N[C@H](C(=O)N[C@@H](CC(N)=O)C(=O)N[C@@H](Cc1c[nH]c2ccccc12)C(=O)N[C@@H](CC(C)C)C(=O)N[C@H](C(=O)N[C@@H](CCC(N)=O)C(=O)N[C@H](C(=O)N[C@@H](CCCCN)C(N)=O)[C@@H](C)O)[C@@H](C)CC)[C@@H](C)CC)[C@@H](C)CC)[C@@H](C)O` (stereo not given in full) were, in that order, above 110, 40, above 1000 nM, 8.9 nM and “inactive”.
For `CCCCC(NC(=O)[C@H](CCC(=O)O)NC(=O)[C@H](CC(=O)O)NC(=O)[C@H](CO)NC(=O)[C@H](Cc1ccccc1)NC(=O)[C@H](CO)NC(=O)CNC(=O)[C@H](CC(=O)O)NC(=O)CNC(=O)[C@@H](N)Cc1cnc[nH]1)C(=O)N[C@H](CC(N)=O)C(=O)N[C@H](C(=O)N[C@H](C(=O)N[C@@H](CC(C)C)C(=O)N[C@@H](CC(=O)O)C(=O)N[C@@H](CC(N)=O)C(=O)N[C@@H](CC(C)C)C(=O)N[C@@H](C)C(=O)N[C@@H](C)C(=O)N[C@@H](CCCNC(=N)N)C(=O)N[C@@H](CC(=O)O)C(=O)N[C@@H](Cc1ccccc1)C(=O)N[C@H](C(=O)N[C@@H](CC(N)=O)C(=O)N[C@@H](Cc1c[nH]c2ccccc12)C(=O)N[C@@H](CC(C)C)C(=O)N[C@H](C(=O)N[C@@H](CCC(N)=O)C(=O)N[C@H](C(=O)N[C@@H](CCCCN)C(N)=O)[C@@H](C)O)[C@@H](C)CC)[C@@H](C)CC)[C@@H](C)CC)[C@@H](C)O` (stereo not given in full) the same measures were above 6200, 0.73, above 1000 nM, 0.16 nM and “inactive”.
The like results for `CCCCC(NC(=O)[C@H](CCC(=O)O)NC(=O)[C@H](CC(=O)O)NC(=O)[C@H](CO)NC(=O)[C@H](Cc1ccccc1)NC(=O)[C@H](CO)NC(=O)CNC(=O)[C@H](CC(=O)O)NC(=O)CNC(=O)[C@@H](N)Cc1cnc[nH]1)C(=O)N[C@@H](CC(N)=O)C(=O)N[C@H](C(=O)N[C@H](C(=O)N[C@@H](CC(C)C)C(=O)N[C@@H](CC(=O)O)C(=O)N[C@@H](CC(N)=O)C(=O)N[C@@H](CC(C)C)C(=O)N[C@@H](C)C(=O)N[C@@H](C)C(=O)N[C@@H](CCCNC(=N)N)C(=O)N[C@@H](CC(=O)O)C(=O)N[C@@H](Cc1ccccc1)C(=O)N[C@H](C(=O)N[C@@H](CC(N)=O)C(=O)N[C@@H](Cc1c[nH]c2ccccc12)C(=O)N[C@@H](CC(C)C)C(=O)N[C@H](C(=O)N[C@@H](CCC(N)=O)C(=O)N[C@H](C(=O)N[C@H](CCCCN)C(N)=O)[C@@H](C)O)[C@@H](C)CC)[C@@H](C)CC)[C@@H](C)CC)[C@@H](C)O` (stereo not given in full) were, in that order, above 2600, 1.7, above 1000 nM, 0.38 nM and “inactive”.
For the compound `CCCCC(NC(=O)[C@H](CCC(=O)O)NC(=O)[C@H](CC(=O)O)NC(=O)[C@H](CO)NC(=O)[C@H](Cc1ccccc1)NC(=O)[C@H](CO)NC(=O)CNC(=O)[C@H](CC(=O)O)NC(=O)CNC(=O)[C@@H](N)Cc1cnc[nH]1)C(=O)N[C@@H](CC(N)=O)C(=O)N[C@H](C(=O)N[C@H](C(=O)N[C@@H](CC(C)C)C(=O)N[C@@H](CC(=O)O)C(=O)N[C@@H](CC(N)=O)C(=O)N[C@@H](CC(C)C)C(=O)N[C@@H](C)C(=O)N[C@@H](C)C(=O)N[C@@H](CCCNC(=N)N)C(=O)N[C@@H](CC(=O)O)C(=O)N[C@@H](Cc1ccccc1)C(=O)N[C@H](C(=O)N[C@@H](CC(N)=O)C(=O)N[C@@H](Cc1c[nH]c2ccccc12)C(=O)N[C@@H](CC(C)C)C(=O)N[C@H](C(=O)N[C@@H](CCC(N)=O)C(=O)N[C@@H](C(=O)N[C@@H](CCCCN)C(N)=O)[C@H](C)O)[C@@H](C)CC)[C@@H](C)CC)[C@@H](C)CC)[C@@H](C)O` (stereo not given in full), the Ratio EC50 in assay [1] is above 220; in assay [3] it was 20. The results for the EC50 in assay [2] and in assay [4] were above 1000 nM and 4.5 nM, respectively. Also, the outcome in assay [5] was inactive.
The like results for `CCCCC(NC(=O)[C@H](CCC(=O)O)NC(=O)[C@@H](CC(=O)O)NC(=O)[C@H](CO)NC(=O)[C@H](Cc1ccccc1)NC(=O)[C@H](CO)NC(=O)CNC(=O)[C@H](CC(=O)O)NC(=O)CNC(=O)[C@@H](N)Cc1cnc[nH]1)C(=O)N[C@@H](CC(N)=O)C(=O)N[C@H](C(=O)N[C@H](C(=O)N[C@@H](CC(C)C)C(=O)N[C@@H](CC(=O)O)C(=O)N[C@@H](CC(N)=O)C(=O)N[C@@H](CC(C)C)C(=O)N[C@@H](C)C(=O)N[C@@H](C)C(=O)N[C@@H](CCCNC(=N)N)C(=O)N[C@@H](CC(=O)O)C(=O)N[C@@H](Cc1ccccc1)C(=O)N[C@H](C(=O)N[C@@H](CC(N)=O)C(=O)N[C@@H](Cc1c[nH]c2ccccc12)C(=O)N[C@@H](CC(C)C)C(=O)N[C@H](C(=O)N[C@@H](CCC(N)=O)C(=O)N[C@H](C(=O)N[C@@H](CCCCN)C(N)=O)[C@@H](C)O)[C@@H](C)CC)[C@@H](C)CC)[C@@H](C)CC)[C@@H](C)O` (stereo not given in full) were, in that order, above 62, 73, above 1000 nM, 16 nM and “inactive”.
The like results for `CCCCC(NC(=O)[C@H](CCC(=O)O)NC(=O)[C@H](CC(=O)O)NC(=O)[C@H](CO)NC(=O)[C@H](Cc1ccccc1)NC(=O)[C@H](CO)NC(=O)CNC(=O)[C@H](CC(=O)O)NC(=O)CNC(=O)[C@@H](N)Cc1cnc[nH]1)C(=O)N[C@@H](CC(N)=O)C(=O)N[C@H](C(=O)N[C@H](C(=O)N[C@@H](CC(C)C)C(=O)N[C@@H](CC(=O)O)C(=O)N[C@@H](CC(N)=O)C(=O)N[C@@H](CC(C)C)C(=O)N[C@@H](C)C(=O)N[C@@H](C)C(=O)N[C@@H](CCCNC(=N)N)C(=O)N[C@@H](CC(=O)O)C(=O)N[C@@H](Cc1ccccc1)C(=O)N[C@H](C(=O)N[C@H](CC(N)=O)C(=O)N[C@@H](Cc1c[nH]c2ccccc12)C(=O)N[C@@H](CC(C)C)C(=O)N[C@H](C(=O)N[C@@H](CCC(N)=O)C(=O)N[C@H](C(=O)N[C@@H](CCCCN)C(N)=O)[C@@H](C)O)[C@@H](C)CC)[C@@H](C)CC)[C@@H](C)CC)[C@@H](C)O` (stereo not given in full) were, in that order, above 2300, 2, above 1000 nM, 0.43 nM and “inactive”.
As to `CCCCC(NC(=O)[C@H](CCC(=O)O)NC(=O)[C@H](CC(=O)O)NC(=O)[C@H](CO)NC(=O)[C@H](Cc1ccccc1)NC(=O)[C@H](CO)NC(=O)CNC(=O)[C@H](CC(=O)O)NC(=O)CNC(=O)[C@@H](N)Cc1cnc[nH]1)C(=O)N[C@@H](CC(N)=O)C(=O)N[C@H](C(=O)N[C@H](C(=O)N[C@@H](CC(C)C)C(=O)N[C@@H](CC(=O)O)C(=O)N[C@@H](CC(N)=O)C(=O)N[C@@H](CC(C)C)C(=O)N[C@H](C)C(=O)N[C@@H](C)C(=O)N[C@@H](CCCNC(=N)N)C(=O)N[C@@H](CC(=O)O)C(=O)N[C@@H](Cc1ccccc1)C(=O)N[C@H](C(=O)N[C@@H](CC(N)=O)C(=O)N[C@@H](Cc1c[nH]c2ccccc12)C(=O)N[C@@H](CC(C)C)C(=O)N[C@H](C(=O)N[C@@H](CCC(N)=O)C(=O)N[C@H](C(=O)N[C@@H](CCCCN)C(N)=O)[C@@H](C)O)[C@@H](C)CC)[C@@H](C)CC)[C@@H](C)CC)[C@@H](C)O` (stereo not given in full), the Ratio EC50 in assay [1] is above 220; in assay [3], 20. Besides, the EC50 was above 1000 nM in assay [2] and 4.5 nM in assay [4]. In addition, the result in assay [5] was inactive.

A word on the EC50: it is the concentration giving half of the maximal effect.
